Measured values: ChEMBL document CHEMBL5331083, “Targeting ferroptosis: Paving new roads for drug design and discovery” (Eur J Med Chem, 2023)

Columns and labels:
Type in all cases: functional, cell-based
[1] = Inhibition of ferroptosis in tamoxifen induced Gpx4-/- mouse MEF cells
[2] = Inhibition of erastin-induced cell death in human HT-1080 cells
[3] = test system: MCF7; assay: Cytotoxicity against human MCF7 cells incubated for 48 hrs by MTT assay; details: MCF7, 48 h
[4] = test system: HT-22; assay: Inhibition of erastin-induced ferroptosis in mouse HT-22 cells incubated for 24 hrs by MTT assay; details: HT-22, 24 h
[5] = test system: HT-22; assay: Inhibition of RSL3-induced ferroptosis in mouse HT-22 cells incubated for 24 hrs by MTT assay; details: HT-22, 24 h

Clc1cccc(CNC2=Nc3ccccc3NC23CCNCC3)c1 gave an IC50 [1] of 22 nM.

For CCOC(=O)c1ccc(NC2CCCCC2)c(N)c1, the IC50 [2] was 95 nM.

Work on CCOC(=O)c1ccc(NC2CCCCC2)c(NCc2ccccc2)c1 yielded an IC50 [2] of 6 nM.

Work on COc1cc(O)c2c(=O)cc(-c3ccc(O)c(-c4c(O)cc5oc(-c6ccc(O)cc6)cc(=O)c5c4OC)c3)oc2c1 yielded an IC50 [3] of 11.9 µM.

For CCO[C@@H]1C[C@@H]2C[C@@H]([C@@]3(C)[C@H](C)C[C@H](OC(C)=O)[C@]4(COC(C)=O)[C@@H]3CC[C@H](OC(=O)C(C)CC)[C@]43CO3)O[C@@H]2O1 (stereo partly specified), the EC50 [4] was 4.1 µM and the EC50 [5] was 3.6 µM.
